Values of other authors as cited in US20250288673A1, “GENE THERAPY FOR THE TREATMENT OF ACTIVATED PI3KINASE DELTA SYNDROME TYPE 1 (APDS1)” (Cellectis SA, priority 2022, published 2025).

Key:
[1] = after administration; cited from earlier work
PI3Kδ = conditions: APDS1 treatment; cited from earlier work

| Compound | side effects outside of the immune system [1] | effect on lymphadenopathy and immune B cell subpopulations (PI3Kδ) |
| --- | --- | --- |
| CO[C@H]1C[C@@H]2CC[C@@H](C)[C@@](O)(O2)C(=O)C(=O)N2CCCC[C@H]2C(=O)O[C@H]([C@H](C)C[C@@H]2CC[C@@H](O)[C@H](OC)C2)CC(=O)[C@H](C)/C=C(\C)[C@@H](O)[C@@H](OC)C(=O)[C@H](C)C[C@H](C)/C=C/C=C/C=C/1C [Rapamycin] | proteinuria was observed |  |
| [O-][n+]1cccc(-c2nc3c(Cl)cccc3cc2[C@@H](Nc2ncnc3cccnc23)C(F)(F)F)c1 [Seletalisib] | liver toxicity | reduction in lymphadenopathy and normalization of immune B cell subpopulations |
